Test results from ChEMBL document CHEMBL1124763, “Nucleoside conjugates. 11. Synthesis and antitumor activity of 1-beta-D-arabinofuranosylcytosine and cytidine conjugates of thioether lipids” (1990).

How the values were obtained:
[1] = tested on: Mus musculus; assay: Increase of life span was determined against Ip implanted L1210 / 0 lymphoid leukemia in mice at a dose of 100 mg/kg per day after treatment 1,8,15,22; type: functional; conditions: L1210/0, ip, route intraperitoneal
[2] = tested on: Mus musculus; assay: Increase of life span was determined against Ip implanted L1210 / 0 lymphoid leukemia in mice at a dose of 200 mg/kg per day after treatment 5; type: functional; conditions: L1210/0, ip, route intraperitoneal
[3] = tested on: Mus musculus; assay: Survival time of treated mice for antitumor activity against Ip implanted L1210 / 0 lymphoid leukemia in mice at a dose of 400 mg/kg per day after treatment 1;29.5/7; conditions: route intraperitoneal
[4] = tested on: Mus musculus; assay: Median survival time for antitumor activity against Ip implanted L1210 / ara-C (I) lymphoid leukemia in mice at a dose of 80 mg/kg per day; conditions: route intraperitoneal
[5] = tested on: Mus musculus; assay: Range of survival days for antitumor activity against Ip implanted L1210 / 0 lymphoid leukemia in mice at a dose of 200 mg/kg per day after treatment 1,15;range is 22-32; type: functional; conditions: route intraperitoneal
[6] = tested on: Mus musculus; assay: Increase of life span was determined against Ip implanted L1210 / 0 lymphoid leukemia in mice at a dose of 60 mg/kg per day after treatment 1-5; type: functional; conditions: L1210/0, ip, route intraperitoneal
[7] = tested on: Mus musculus; assay: Survival time of treated mice for antitumor activity against Ip implanted L1210 / 0 lymphoid leukemia in mice at a dose of 400 mg/kg per day after treatment 2;19.5/7; conditions: route intraperitoneal
[8] = tested on: Mus musculus; assay: Increase of life span was determined against Ip implanted L1210 / 0 lymphoid leukemia in mice at a dose of 400 mg/kg per day; type: functional; conditions: L1210/0, ip, route intraperitoneal
[9] = tested on: Mus musculus; assay: Survival time treated for antitumor activity against Ip implanted L1210 / 0 lymphoid leukemia in mice at a dose of 400 mg/kg per day after treatment -1;21.5/7; conditions: route intraperitoneal
[10] = tested on: Mus musculus; assay: Increase of life span was determined against Ip implanted L1210 / ara-C (I) lymphoid leukemia in mice at a dose of 400 mg/kg per day; type: functional; conditions: route intraperitoneal
[11] = tested on: Mus musculus; assay: Survival time treated for antitumor activity against Ip implanted L1210 / 0 lymphoid leukemia in mice at a dose of 100 mg/kg per day after treatment 1,8,15,22;24/7; conditions: route intraperitoneal
[12] = tested on: Mus musculus; assay: Survival time treated for antitumor activity against Ip implanted L1210 / 0 lymphoid leukemia in mice at a dose of 200 mg/kg per day after treatment 1,8,15,22;24.5/7; conditions: route intraperitoneal
[13] = tested on: Mus musculus; assay: Range of survival days for antitumor activity against Ip implanted L1210 / 0 lymphoid leukemia in mice at a dose of 400 mg/kg per day after treatment 2;range is 12-26; type: functional; conditions: route intraperitoneal
[14] = tested on: Mus musculus; assay: Range of survival days for antitumor activity against Ip implanted L1210 / 0 lymphoid leukemia in mice at a dose of 200 mg/kg per day after treatment 1;range is 24->45; type: functional; conditions: route intraperitoneal
[15] = tested on: Mus musculus; assay: Survival time treated for antitumor activity against Ip implanted L1210 / 0 lymphoid leukemia in mice at a dose of 200 mg/kg per day after treatment 5;15/7; conditions: route intraperitoneal
[16] = tested on: Mus musculus; assay: Survival time treated for antitumor activity against Ip implanted L1210 / 0 lymphoid leukemia in mice at a dose of 200 mg/kg per day after treatment 1;32/7; conditions: route intraperitoneal
[17] = tested on: Mus musculus; assay: Increase of life span was determined against Ip implanted L1210 / 0 lymphoid leukemia in mice at a dose of 300 mg/kg per day after treatment 1; type: functional; conditions: L1210/0, ip, route intraperitoneal
[18] = tested on: Mus musculus; assay: Survival time treated for antitumor activity against Ip implanted L1210 / 0 lymphoid leukemia in mice at a dose of 60 mg/kg per day after treatment 1-5;31/8; conditions: route intraperitoneal
[19] = tested on: Mus musculus; assay: Increase of life span was determined against Ip implanted L1210 / ara-C (I) lymphoid leukemia in mice at a dose of 133 mg/kg per day; type: functional; conditions: route intraperitoneal

SMILES: CCCCCCCCCCCCCCCCCCSCC(COP(=O)(O)OP(=O)(O)OC[C@H]1O[C@@H](n2ccc(N)nc2=O)[C@@H](O)[C@@H]1O)OC(=O)CCCCCCCCCCCCCCC (mixture of isomers)
- ILS at 100 mg/kg/day [1]: 243%
- ILS at 200 mg/kg/day [2]: 114%
- survival time [3]: 29.5 days
- median survival time [4]: > 45 days
- Range of survival days [5]: 22
- ILS at 60 mg/kg/day [6]: 288%
- survival time [7]: 19.5 days
- ILS at 400 mg/kg/day [8]: > 507%
- survival time [9]: 21.5 days
- ILS at 400 mg/kg/day [10]: > 350%
- survival time [11]: 24 days
- survival time [12]: 24.5 days
- Range of survival days [13]: 12
- Range of survival days [14]: >24
- survival time [15]: 15 days
- survival time [16]: 32 days
- ILS at 300 mg/kg/day [17]: 371%
- survival time [18]: 31 days
- ILS at 133 mg/kg/day [19]: > 350%
